Several values for one entry are separate records, joined by “and”; a condition that tells them apart may be missing. Equal values may be shown once.
What was measured:
Conditions in all cases: treatment: drug + dasatinib (fixed dose, not stated); 5 days
[1] = test system: 786-O; test: AUC of dose-response viability curve, drug + dasatinib, normalised to DMSO (arbitrary (AUC of normalised viability)); higher = less growth inhibition
Protocol: (§1)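 Primary HTS combination arm: 8 RCC cell lines treated with 8 doses (up to 10 uM) of each library drug plus a fixed dose of dasatinib (dose not stated) for 5 days; viability read by CellTiter-Glo and normalised to DMSO. GI50 was fitted with XLfit, AUC is the area under the dose-response curve, and minimum viability is the lowest fraction of DMSO viability across doses.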

[2] = test system: SN12C; test: as above
Protocol: as §1

[3] = test system: 769-P; test: as above
Protocol: as §1

[4] = test system: TK-10; test: as above
Protocol: as §1

[5] = test system: A498; test: as above
Protocol: as §1

[6] = test system: CAKI-1; test: as above
Protocol: as §1

[7] = test system: ACHN; test: as above
Protocol: as §1

[8] = test system: UO-31; test: as above
Protocol: as §1

[9] = test system: 786-O; test: GI50 of drug in presence of dasatinib; higher = less potent
Protocol: as §1

[10] = test system: SN12C; test: as above
Protocol: as §1

[11] = test system: 769-P; test: as above
Protocol: as §1

[12] = test system: TK-10; test: as above
Protocol: as §1

[13] = test system: A498; test: as above
Protocol: as §1

[14] = test system: CAKI-1; test: as above
Protocol: as §1

[15] = test system: ACHN; test: as above
Protocol: as §1

[16] = test system: UO-31; test: as above
Protocol: as §1

[17] = test system: 786-O; test: minimum viability across doses, drug + dasatinib, relative to DMSO (fraction); higher = less growth inhibition
Protocol: as §1

[18] = test system: SN12C; test: as above
Protocol: as §1

[19] = test system: 769-P; test: as above
Protocol: as §1

[20] = test system: TK-10; test: as above
Protocol: as §1

[21] = test system: A498; test: as above
Protocol: as §1

[22] = test system: CAKI-1; test: as above
Protocol: as §1

[23] = test system: ACHN; test: as above
Protocol: as §1

[24] = test system: UO-31; test: as above
Protocol: as §1

O=C1NC(=O)C(=Cc2ccc(-c3ccc(F)cc3)o2)S1 (stereo in doubt) + Cc1nc(Nc2ncc(C(=O)Nc3c(C)cccc3Cl)s2)cc(N2CCN(CCO)CC2)n1 [dasatinib]
AUC of dose-response viability curve [1]: 2.24 | AUC of dose-response viability curve [2]: 2.4 | AUC of dose-response viability curve [3]: 2.42 | AUC of dose-response viability curve [4]: 2.37 | AUC of dose-response viability curve [5]: 3.83 | AUC of dose-response viability curve [6]: 2.46 | AUC of dose-response viability curve [7]: 2.28 | AUC of dose-response viability curve [8]: 3.43 | GI50 of drug [9]: > 10000 nM | GI50 of drug [10]: > 10000 nM | GI50 of drug [11]: > 10000 nM | GI50 of drug [12]: > 10000 nM | GI50 of drug [13]: > 10000 nM | GI50 of drug [14]: > 10000 nM | GI50 of drug [15]: > 10000 nM | GI50 of drug [16]: > 10000 nM | minimum viability across doses [17]: 0.519 | minimum viability across doses [18]: 0.655 | minimum viability across doses [19]: 0.594 | minimum viability across doses [20]: 0.633 | minimum viability across doses [21]: 0.903 | minimum viability across doses [22]: 0.638 | minimum viability across doses [23]: 0.607 | minimum viability across doses [24]: 0.657

CCOc1ccn(-c2ccc(F)cc2)c(=O)c1C(=O)Nc1ccc(Oc2ccnc(N)c2Cl)c(F)c1 + Cc1nc(Nc2ncc(C(=O)Nc3c(C)cccc3Cl)s2)cc(N2CCN(CCO)CC2)n1 [dasatinib]
AUC of dose-response viability curve [1]: 1.85 | AUC of dose-response viability curve [2]: 2.27 | AUC of dose-response viability curve [3]: 2.36 | AUC of dose-response viability curve [4]: 2.43 | AUC of dose-response viability curve [5]: 2.83 | AUC of dose-response viability curve [6]: 1.92 | AUC of dose-response viability curve [7]: 1.66 | AUC of dose-response viability curve [8]: 3.54 | GI50 of drug [9]: 1570 nM | GI50 of drug [10]: > 10000 nM | GI50 of drug [11]: > 10000 nM | GI50 of drug [12]: > 10000 nM | GI50 of drug [13]: > 10000 nM | GI50 of drug [15]: 642 nM | GI50 of drug [16]: > 10000 nM | minimum viability across doses [17]: 0.35 | minimum viability across doses [18]: 0.528 | minimum viability across doses [19]: 0.495 | minimum viability across doses [20]: 0.634 | minimum viability across doses [21]: 0.61 | minimum viability across doses [22]: 0.118 | minimum viability across doses [23]: 0.247 | minimum viability across doses [24]: 0.695

N#Cc1c(O)c2c(-c3ccc(-c4ccccc4O)cc3)csc2[nH]c1=O + Cc1nc(Nc2ncc(C(=O)Nc3c(C)cccc3Cl)s2)cc(N2CCN(CCO)CC2)n1 [dasatinib]
AUC of dose-response viability curve [1]: 2.63 | AUC of dose-response viability curve [2]: 2.35 | AUC of dose-response viability curve [3]: 2.56 | AUC of dose-response viability curve [4]: 2.78 | AUC of dose-response viability curve [5]: 3.43 | AUC of dose-response viability curve [6]: 2.38 | AUC of dose-response viability curve [7]: 2.25 | AUC of dose-response viability curve [8]: 4.43 | GI50 of drug [9]: > 10000 nM | GI50 of drug [10]: > 10000 nM | GI50 of drug [11]: > 10000 nM | GI50 of drug [12]: > 10000 nM | GI50 of drug [13]: > 10000 nM | GI50 of drug [14]: > 10000 nM | GI50 of drug [15]: > 10000 nM | GI50 of drug [16]: > 10000 nM | minimum viability across doses [17]: 0.6 | minimum viability across doses [18]: 0.634 | minimum viability across doses [19]: 0.683 | minimum viability across doses [20]: 0.705 | minimum viability across doses [21]: 0.86 | minimum viability across doses [22]: 0.655 | minimum viability across doses [23]: 0.595 | minimum viability across doses [24]: 1.02

CO[C@@H](C(=O)N1Cc2[nH]nc(NC(=O)c3ccc(N4CCN(C)CC4)cc3)c2C1)c1ccccc1 + Cc1nc(Nc2ncc(C(=O)Nc3c(C)cccc3Cl)s2)cc(N2CCN(CCO)CC2)n1 [dasatinib]
AUC of dose-response viability curve [1]: 1.57 and 1.49 | AUC of dose-response viability curve [2]: 1.95 and 1.86 | AUC of dose-response viability curve [3]: 2.12 and 2.33 | AUC of dose-response viability curve [4]: 2.19 and 2.06 | AUC of dose-response viability curve [5]: 2.44 and 2.82 | AUC of dose-response viability curve [6]: 1.46 | AUC of dose-response viability curve [7]: 1.37 and 1.42 | AUC of dose-response viability curve [8]: 2.67 and 3.57 | GI50 of drug [9]: 184 nM and 231 nM | GI50 of drug [10]: 491 nM and 366 nM | GI50 of drug [11]: 2950 nM and 3100 nM | GI50 of drug [12]: 1560 nM and 1030 nM | GI50 of drug [13]: 1310 nM and 2720 nM | GI50 of drug [14]: 170 nM and 198 nM | GI50 of drug [15]: 18.2 nM and 153 nM | GI50 of drug [16]: 3120 nM and 3920 nM | minimum viability across doses [18]: 0.159 and 0.145 | minimum viability across doses [19]: 0.346 and 0.337 | minimum viability across doses [20]: 0.146 and 0.131 | minimum viability across doses [21]: 0.36 and 0.384 | minimum viability across doses [22]: 0.0301 and 0.0221 | minimum viability across doses [23]: 0.0933 and 0.0842 | minimum viability across doses [24]: 0.0249 and 0.0141

C[C@@H]1COC(Nc2ccc3ncnc(Nc4ccc(OCc5nccs5)c(Cl)c4)c3c2)=N1 + Cc1nc(Nc2ncc(C(=O)Nc3c(C)cccc3Cl)s2)cc(N2CCN(CCO)CC2)n1 [dasatinib]
AUC of dose-response viability curve [1]: 2.05 | AUC of dose-response viability curve [2]: 2.36 | AUC of dose-response viability curve [3]: 1.87 | AUC of dose-response viability curve [4]: 2.03 | AUC of dose-response viability curve [5]: 4.08 | AUC of dose-response viability curve [6]: 2.16 | AUC of dose-response viability curve [7]: 1.62 | AUC of dose-response viability curve [8]: 3.53 | GI50 of drug [9]: > 10000 nM | GI50 of drug [10]: > 10000 nM | GI50 of drug [11]: 267 nM | GI50 of drug [12]: 614 nM | GI50 of drug [13]: > 10000 nM | GI50 of drug [14]: 3550 nM | GI50 of drug [15]: 96.4 nM | GI50 of drug [16]: > 10000 nM | minimum viability across doses [17]: 0.49 | minimum viability across doses [18]: 0.638 | minimum viability across doses [19]: 0.18 | minimum viability across doses [20]: 0.318 | minimum viability across doses [21]: 0.988 | minimum viability across doses [22]: 0.318 | minimum viability across doses [23]: 0.286 | minimum viability across doses [24]: 0.679

O=C1NC(=O)/C(=C/c2ccc3c(c2)OC(F)(F)O3)S1 + Cc1nc(Nc2ncc(C(=O)Nc3c(C)cccc3Cl)s2)cc(N2CCN(CCO)CC2)n1 [dasatinib]
AUC of dose-response viability curve [1]: 2.32 | AUC of dose-response viability curve [2]: 2.34 | AUC of dose-response viability curve [3]: 2.51 | AUC of dose-response viability curve [4]: 2.52 | AUC of dose-response viability curve [5]: 3.79 | AUC of dose-response viability curve [6]: 2.42 | AUC of dose-response viability curve [7]: 2.11 | AUC of dose-response viability curve [8]: 4.77 | GI50 of drug [9]: > 10000 nM | GI50 of drug [10]: > 10000 nM | GI50 of drug [11]: > 10000 nM | GI50 of drug [12]: > 10000 nM | GI50 of drug [13]: > 10000 nM | GI50 of drug [14]: > 10000 nM | GI50 of drug [15]: > 10000 nM | GI50 of drug [16]: > 10000 nM | minimum viability across doses [17]: 0.543 | minimum viability across doses [18]: 0.645 | minimum viability across doses [19]: 0.679 | minimum viability across doses [20]: 0.655 | minimum viability across doses [21]: 0.925 | minimum viability across doses [22]: 0.634 | minimum viability across doses [23]: 0.538 | minimum viability across doses [24]: 1.28

Cc1cnc(Nc2ccc(N3CCN(C)CC3)cc2)nc1Nc1cccc(S(=O)(=O)NC(C)(C)C)c1 + Cc1nc(Nc2ncc(C(=O)Nc3c(C)cccc3Cl)s2)cc(N2CCN(CCO)CC2)n1 [dasatinib]
AUC of dose-response viability curve [1]: 1.88 and 1.72 | AUC of dose-response viability curve [2]: 1.85 and 1.91 | AUC of dose-response viability curve [3]: 1.99 and 2 | AUC of dose-response viability curve [4]: 1.73 and 1.65 | AUC of dose-response viability curve [5]: 3.36 and 2.9 | AUC of dose-response viability curve [6]: 1.56 and 1.46 | AUC of dose-response viability curve [7]: 1.25 and 1.24 | AUC of dose-response viability curve [8]: 3.14 and 3 | GI50 of drug [9]: 497 nM and 187 nM | GI50 of drug [10]: 746 nM and 690 nM | GI50 of drug [11]: 878 nM and 719 nM | GI50 of drug [12]: 336 nM and 309 nM | GI50 of drug [13]: 4270 nM and 3210 nM | GI50 of drug [14]: 271 nM and 152 nM | GI50 of drug [15]: 79.9 nM and 106 nM | GI50 of drug [16]: 903 nM and 821 nM | minimum viability across doses [17]: 0.0113 and 0.0115 | minimum viability across doses [19]: 0.0284 and 0.0197 | minimum viability across doses [20]: 0.00138 and 0.00232 | minimum viability across doses [21]: 0.176 and 0.14 | minimum viability across doses [22]: 0.00497 and 0.00392 | minimum viability across doses [23]: 0.00194 and 0.00321 | minimum viability across doses [24]: 0.0085 and 0.0129

From the supplement of paper PMC8149375
